Type in all cases: functional
In test [1] the test system is Echinochloa crus-galli. The experiment in a line: Herbicidal activity against Echinochloa crus-galli (barnyard grass) assessed as inhibition of plant growth at 10 ug/mL by cup test.
In test [2] the test system is Echinochloa crus-galli. The experiment in a line: Herbicidal activity against Echinochloa crus-galli (barnyard grass) assessed as inhibition of plant growth at 187.5 g/ha applied as pre-emergence treatment. Conditions: for inhibition at 187.5 g/ha: Echinochloa crus-galli, pre-emergence.
Test [3] concerns Echinochloa crus-galli. The experiment in a line: Herbicidal activity against Echinochloa crus-galli (barnyard grass) assessed as inhibition of plant growth at 750 g/ha applied as pre-emergence treatment. The settings on record: for inhibition at 750 g/ha: Echinochloa crus-galli, pre-emergence.
The subject of test [4] is Digitaria sanguinalis. Briefly: Herbicidal activity against Digitaria sanguinalis (hairy crabgrass) assessed as inhibition of plant growth at 93.75 g/ha applied as pre-emergence treatment. The settings on record: for inhibition at 93.75 g/ha: Digitaria sanguinalis, pre-emergence.
For test [5], the system named is Digitaria sanguinalis. Briefly: Herbicidal activity against Digitaria sanguinalis (hairy crabgrass) assessed as inhibition of plant growth at 375 g/ha applied as pre-emergence treatment. The settings on record: for inhibition at 375 g/ha: Digitaria sanguinalis, pre-emergence.
Test [6] concerns Echinochloa crus-galli. The experiment in a line: Herbicidal activity against Echinochloa crus-galli (barnyard grass) assessed as inhibition of plant growth at 93.75 g/ha applied as pre-emergence treatment. Conditions: for inhibition at 93.75 g/ha: Echinochloa crus-galli, pre-emergence.
The test system of test [7] is Echinochloa crus-galli. The experiment in a line: Herbicidal activity against Echinochloa crus-galli (barnyard grass) assessed as inhibition of plant growth at 375 g/ha applied as pre-emergence treatment. The settings on record: for inhibition at 375 g/ha: Echinochloa crus-galli, pre-emergence.
In test [8] the test system is Digitaria sanguinalis. Briefly: Herbicidal activity against Digitaria sanguinalis (hairy crabgrass) assessed as inhibition of plant growth at 750 g/ha applied as pre-emergence treatment. The settings on record: for inhibition at 750 g/ha: Digitaria sanguinalis, pre-emergence.
Test [9] has as its system Digitaria sanguinalis. Briefly: Herbicidal activity against Digitaria sanguinalis (hairy crabgrass) assessed as inhibition of plant growth at 187.5 g/ha applied as pre-emergence treatment. Conditions: for inhibition at 187.5 g/ha: Digitaria sanguinalis, pre-emergence.

The structures appear in SMILES notation.

On to `C=CCOc1ccc(/C(O)=C2\C(=O)CN(C(C)C)C2=O)cc1`, for which the inhibition at 10 µg/mL in test [1] was 78%. Besides, the inhibition at 187.5 g/ha was found to be 55% in test [2] and 36% in test [9]. The figures for the inhibition at 750 g/ha in test [3] and in test [8] were 100% and 79%, respectively. In addition, the inhibition at 93.75 g/ha in [4] came to 0%; in test [6] it was 30%. Moreover, the inhibition at 375 g/ha was 74% in [5] and 95% in [7].
Consider `CCOc1ccc(/C(O)=C2\C(=O)CN(C(C)CC)C2=O)cc1` (stereo not given), for which the inhibition at 10 µg/mL in test [1] came to 78%. The inhibition at 187.5 g/ha came to 28% in test [2] and 41% in test [9]. The inhibition at 750 g/ha in [3] was determined as 93%; in [8], 96%. Moreover, the inhibition at 93.75 g/ha in test [4] stood at 18%; in test [6] it was 7%. Further, the inhibition at 375 g/ha in test [5] is 59%; in test [7] it was 82%.
Consider `CCC(C)N1CC(=O)/C(=C(/O)c2ccc(OC)cc2OC)C1=O` (stereo not given), for which the inhibition at 10 µg/mL in [1] worked out at 79%. Further, the inhibition at 187.5 g/ha in [2] was found to be 14%; in test [9] it was 4%. Further, the inhibition at 750 g/ha in test [3] is 100%; in test [8], 80%. Also, the inhibition at 93.75 g/ha was determined as 0% in test [4] and 13% in test [6]. Moreover, the figures for the inhibition at 375 g/ha in test [5] and in [7] were 63% and 76%, respectively.
Take `CCOc1ccc(/C(O)=C2\C(=O)CN(C(C)C)C2=O)cc1`: in test [1], the inhibition at 10 µg/mL was 79%. Also, the “inhibition (INH)” value in test [2] was 95%; in test [3], 100%; in [4] it was 5%; in test [5], 77%; in [6], 36%; in test [7], 100%. Besides, the entries for the “inhibition (INH)” value in [8] and in test [9] were 93% and 66%, respectively.
In the case of `COc1ccc(/C(O)=C2\C(=O)CN(C(C)C)C2=O)c(OC)c1`, the inhibition at 10 µg/mL in test [1] came out at 78%. The “inhibition (INH)” value in [2] is 56%; in [3], 99%; in test [4] it was 20%; in test [5] it was 95%; in test [6], 10%; in test [7], 94%. For the same molecule, the “inhibition (INH)” value was found to be 95% in test [8] and 84% in test [9].
